The text below walks through data of PubChem BioAssay AID602205 (Sanford-Burnham Center for Chemical Genomics, 2012).

SMILES strings stand for the structures. The source made the active and inactive calls. The rule behind the calls is not given here.

In the assay the target is Ubiquitin-conjugating enzyme E2 N (Homo sapiens) (UniProt P61088). In words: inhibition of UBC13-driven polyubiquitin chain formation – biochemical, TR-FRET, set 3, SAR follow-up (AID 602205). The following applies: TR-FRET polyubiquitination assay. In general terms: Time-resolved FRET reads energy transfer from a long-lived donor to a nearby acceptor.
Sequence of Ubiquitin-conjugating enzyme E2 N (Homo sapiens) (P61088 whole entry, looked up): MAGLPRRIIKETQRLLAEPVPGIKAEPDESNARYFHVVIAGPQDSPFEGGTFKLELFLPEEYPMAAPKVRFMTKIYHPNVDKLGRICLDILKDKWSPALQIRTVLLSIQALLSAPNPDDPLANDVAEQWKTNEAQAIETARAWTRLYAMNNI
The term IC50 denotes the concentration at which inhibition is half-maximal. For `Fc1ccccc1N1CCN(c2ncnc3c2nc2n3CCCC2)CC1`, the IC50 was > 100 µM (inactive). Take `COc1cc(Cl)c(C)cc1NC(=O)C1CCN(c2ncnc3c2nc2n3CCCCC2)CC1`: the IC50 is > 100 µM (inactive). Then `O=C(Nc1ccc(CN2CCCCC2)cc1)C1CCN(c2ncnc3c2nc2n3CCCCC2)CC1`, with > 100 µM (inactive); and `COc1ccc(NC(=O)C2CCN(c3ncnc4c3nc3n4CCCCC3)CC2)cc1Cl`, with > 100 µM (inactive); and `c1nc(N2CCC(N3CCCCC3)CC2)c2nc3n(c2n1)CCCC3`, with > 100 µM (inactive). Next, `O=C(Nc1cccc(Cl)c1)C1CCN(c2ncnc3c2nc2n3CCCCC2)CC1`: 9.63 µM; `Cc1ccc(NC(=O)C2CCN(c3ncnc4c3nc3n4CCCCC3)CC2)c(Cl)c1`: > 100 µM (inactive). Next, `Cc1ccc(NC(=O)C2CCN(c3ncnc4c3nc3n4CCCCC3)CC2)cc1F`: “inactive”; `c1ccc(CN2CCN(c3ncnc4c3nc3n4CCCC3)CC2)cc1`: > 100 µM (inactive). With `Cc1ccc(Cl)cc1N1CCN(c2ncnc3c2nc2n3CCCC2)CC1`, the IC50 is > 100 µM (inactive). Then `CCOc1ccc(CCNC(=O)CCCCCN2C(=O)c3ccccc3C2=O)cc1OCC`, with > 100 µM (inactive); and `O=C(CCCCCN1C(=O)c2ccccc2C1=O)NCCc1ccccc1`, with > 100 µM (inactive). Regarding `COc1cc(OC)c(NC(=O)C2CCN(c3ncnc4c3nc3n4CCCCC3)CC2)cc1Cl`, the IC50 was > 100 µM (inactive).

In the case of `Cc1cc(Cl)ccc1NC(=O)C1CCN(c2ncnc3c2nc2n3CCCCC2)CC1`, the IC50 entry was “inactive”. Next, `Cc1c(Cl)cccc1NC(=O)C1CCN(c2ncnc3c2nc2n3CCCCC2)CC1`: “inactive”; `O=C(Nc1cc(F)ccc1F)C1CCN(c2ncnc3c2nc2n3CCCCC2)CC1`: “inactive”. Consider `Cc1ccc(NC(=O)C2CCN(c3ncnc4c3nc3n4CCCCC3)CC2)cc1C`, for which the IC50 entry was “inactive”. Next, `CC1CN(S(=O)(=O)c2ccc(NC(=O)CCCCCN3C(=O)c4ccccc4C3=O)cc2)CC(C)O1` (centres undefined): > 100 µM (inactive); `COc1ccc(Cl)cc1NC(=O)C1CCN(c2ncnc3c2nc2n3CCCCC2)CC1`: “inactive”.
